How the values were obtained:
PKS12 [1] = target: T1, PKS12 (Mycobacterium tuberculosis, UniProt I6XD69)
PKS12 [2] = target: T1, PKS12; remark: listed apart in the source

T1 sequence (I6XD69 whole entry): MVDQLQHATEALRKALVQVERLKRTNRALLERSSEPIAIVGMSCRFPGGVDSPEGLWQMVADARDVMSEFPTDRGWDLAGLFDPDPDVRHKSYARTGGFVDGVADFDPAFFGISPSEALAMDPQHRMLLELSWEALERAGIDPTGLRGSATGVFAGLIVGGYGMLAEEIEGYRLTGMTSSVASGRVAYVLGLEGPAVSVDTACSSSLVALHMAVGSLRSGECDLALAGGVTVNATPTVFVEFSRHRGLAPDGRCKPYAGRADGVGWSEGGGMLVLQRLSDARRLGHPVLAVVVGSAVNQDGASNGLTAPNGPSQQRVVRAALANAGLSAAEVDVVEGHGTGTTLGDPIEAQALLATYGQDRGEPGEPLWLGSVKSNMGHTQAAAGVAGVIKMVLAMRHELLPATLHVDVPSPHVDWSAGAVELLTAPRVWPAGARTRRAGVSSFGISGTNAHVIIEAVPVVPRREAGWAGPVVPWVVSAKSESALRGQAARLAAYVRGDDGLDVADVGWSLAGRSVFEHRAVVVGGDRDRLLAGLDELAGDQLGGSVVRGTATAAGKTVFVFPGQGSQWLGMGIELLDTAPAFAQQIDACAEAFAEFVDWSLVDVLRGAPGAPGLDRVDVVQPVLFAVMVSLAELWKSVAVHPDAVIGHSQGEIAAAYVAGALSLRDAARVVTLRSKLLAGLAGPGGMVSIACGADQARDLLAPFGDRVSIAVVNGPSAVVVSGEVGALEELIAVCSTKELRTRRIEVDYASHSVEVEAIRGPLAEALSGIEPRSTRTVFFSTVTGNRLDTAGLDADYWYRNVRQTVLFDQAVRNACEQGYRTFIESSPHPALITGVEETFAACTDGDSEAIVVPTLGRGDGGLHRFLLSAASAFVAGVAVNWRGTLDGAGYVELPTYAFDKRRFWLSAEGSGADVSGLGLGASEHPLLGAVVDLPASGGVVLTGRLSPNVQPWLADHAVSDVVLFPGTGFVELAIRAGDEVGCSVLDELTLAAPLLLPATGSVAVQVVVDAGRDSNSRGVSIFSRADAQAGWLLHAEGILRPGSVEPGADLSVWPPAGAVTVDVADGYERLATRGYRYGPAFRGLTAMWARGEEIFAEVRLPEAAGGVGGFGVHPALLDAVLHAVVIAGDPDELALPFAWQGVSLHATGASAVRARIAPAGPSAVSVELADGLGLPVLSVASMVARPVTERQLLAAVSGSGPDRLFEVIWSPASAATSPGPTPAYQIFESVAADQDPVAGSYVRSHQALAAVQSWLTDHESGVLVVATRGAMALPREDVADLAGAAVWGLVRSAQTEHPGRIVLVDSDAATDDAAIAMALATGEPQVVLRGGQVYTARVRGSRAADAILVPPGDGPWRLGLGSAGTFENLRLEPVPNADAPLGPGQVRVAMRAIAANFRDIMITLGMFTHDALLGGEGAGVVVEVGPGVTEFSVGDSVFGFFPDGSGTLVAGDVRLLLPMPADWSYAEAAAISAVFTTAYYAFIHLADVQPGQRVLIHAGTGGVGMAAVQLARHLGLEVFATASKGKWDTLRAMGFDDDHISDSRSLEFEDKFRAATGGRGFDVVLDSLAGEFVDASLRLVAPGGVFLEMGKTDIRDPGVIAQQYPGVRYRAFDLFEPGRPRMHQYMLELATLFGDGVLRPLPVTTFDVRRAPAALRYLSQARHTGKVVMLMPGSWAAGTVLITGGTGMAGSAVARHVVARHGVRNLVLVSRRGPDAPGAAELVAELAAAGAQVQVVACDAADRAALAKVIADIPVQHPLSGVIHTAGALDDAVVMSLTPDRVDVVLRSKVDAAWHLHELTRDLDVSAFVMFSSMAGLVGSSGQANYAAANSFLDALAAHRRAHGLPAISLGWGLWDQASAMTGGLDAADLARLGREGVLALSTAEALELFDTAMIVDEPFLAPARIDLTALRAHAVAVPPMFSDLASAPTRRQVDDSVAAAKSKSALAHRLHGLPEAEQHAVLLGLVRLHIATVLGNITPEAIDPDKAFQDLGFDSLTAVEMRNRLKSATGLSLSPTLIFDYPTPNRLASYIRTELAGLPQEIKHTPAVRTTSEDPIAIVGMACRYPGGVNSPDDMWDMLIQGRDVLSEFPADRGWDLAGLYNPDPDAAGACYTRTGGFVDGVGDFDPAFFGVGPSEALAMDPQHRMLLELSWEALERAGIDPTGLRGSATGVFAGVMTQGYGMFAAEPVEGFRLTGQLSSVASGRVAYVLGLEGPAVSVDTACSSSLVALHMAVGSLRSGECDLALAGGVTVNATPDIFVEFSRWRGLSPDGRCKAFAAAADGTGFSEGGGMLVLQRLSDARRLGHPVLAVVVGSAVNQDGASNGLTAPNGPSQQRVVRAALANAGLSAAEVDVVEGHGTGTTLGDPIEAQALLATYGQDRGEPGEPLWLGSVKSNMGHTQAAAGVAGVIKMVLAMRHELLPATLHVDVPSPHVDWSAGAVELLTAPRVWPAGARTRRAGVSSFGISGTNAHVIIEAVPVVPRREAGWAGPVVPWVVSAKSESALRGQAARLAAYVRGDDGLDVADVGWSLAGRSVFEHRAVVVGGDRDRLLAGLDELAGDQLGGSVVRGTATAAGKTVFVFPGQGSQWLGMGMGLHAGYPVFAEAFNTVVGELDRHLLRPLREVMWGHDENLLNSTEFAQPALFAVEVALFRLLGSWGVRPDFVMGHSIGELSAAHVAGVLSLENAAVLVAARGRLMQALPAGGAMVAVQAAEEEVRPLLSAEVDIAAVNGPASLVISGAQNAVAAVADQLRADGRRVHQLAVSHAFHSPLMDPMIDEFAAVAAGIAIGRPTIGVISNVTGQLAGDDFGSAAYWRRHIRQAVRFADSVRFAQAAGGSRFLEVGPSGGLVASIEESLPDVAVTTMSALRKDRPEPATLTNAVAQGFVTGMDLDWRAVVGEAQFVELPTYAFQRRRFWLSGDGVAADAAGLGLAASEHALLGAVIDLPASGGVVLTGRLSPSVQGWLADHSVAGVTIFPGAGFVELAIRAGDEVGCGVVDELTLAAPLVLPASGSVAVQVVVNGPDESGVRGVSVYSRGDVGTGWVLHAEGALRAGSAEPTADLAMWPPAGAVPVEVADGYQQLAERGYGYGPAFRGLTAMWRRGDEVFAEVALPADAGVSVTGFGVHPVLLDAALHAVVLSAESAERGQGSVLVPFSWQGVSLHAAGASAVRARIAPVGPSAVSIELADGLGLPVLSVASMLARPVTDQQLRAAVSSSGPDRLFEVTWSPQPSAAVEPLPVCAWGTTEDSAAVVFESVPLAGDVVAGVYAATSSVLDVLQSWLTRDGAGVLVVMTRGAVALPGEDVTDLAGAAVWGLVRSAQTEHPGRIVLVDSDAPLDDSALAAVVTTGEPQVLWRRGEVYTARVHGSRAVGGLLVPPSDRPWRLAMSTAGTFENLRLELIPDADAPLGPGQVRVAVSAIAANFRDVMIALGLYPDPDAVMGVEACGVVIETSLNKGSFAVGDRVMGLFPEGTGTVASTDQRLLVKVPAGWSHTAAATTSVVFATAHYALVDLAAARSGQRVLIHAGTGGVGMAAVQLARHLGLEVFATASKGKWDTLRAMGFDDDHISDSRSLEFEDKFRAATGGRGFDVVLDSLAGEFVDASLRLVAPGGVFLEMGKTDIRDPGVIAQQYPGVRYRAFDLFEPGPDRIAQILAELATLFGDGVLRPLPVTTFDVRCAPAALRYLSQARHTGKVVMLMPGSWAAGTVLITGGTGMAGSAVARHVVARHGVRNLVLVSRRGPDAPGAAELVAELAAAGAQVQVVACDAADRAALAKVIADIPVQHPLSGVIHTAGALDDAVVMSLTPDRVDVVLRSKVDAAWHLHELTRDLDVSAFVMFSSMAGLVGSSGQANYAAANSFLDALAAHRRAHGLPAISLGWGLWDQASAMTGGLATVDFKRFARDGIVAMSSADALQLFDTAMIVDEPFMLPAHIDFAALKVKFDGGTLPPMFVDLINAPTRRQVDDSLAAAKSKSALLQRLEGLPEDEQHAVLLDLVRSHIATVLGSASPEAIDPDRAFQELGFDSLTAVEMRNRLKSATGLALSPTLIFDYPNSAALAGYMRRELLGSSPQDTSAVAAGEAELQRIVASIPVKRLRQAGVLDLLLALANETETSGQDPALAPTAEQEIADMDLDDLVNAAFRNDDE

Structure (SMILES)	inhibition at 100 μM (PKS12 [1])	14C labelling of protein, SDS-PAGE phosphorimaging (PKS12 [2])
C/C=C/C/C=C/CCC(=O)[C@H]1O[C@H]1C(N)=O [cerulenin]	incubation of PKS12 protein with KS inhibitor cerulenin showed no radioactive bands	
CC(C)(COP(=O)(O)OP(=O)(O)OC[C@H]1O[C@@H](n2cnc3c(N)ncnc32)[C@H](O)[C@@H]1OP(=O)(O)O)[C@@H](O)C(=O)NCCC(=O)NCCSC(=O)CC(=O)O [malonyl CoA]		SDS-PAGE gel-binding assays clearly showed that PKS12 could be radiolabeled with both of these substrates
CC(C(=O)O)C(=O)SCCNC(=O)CCNC(=O)[C@H](O)C(C)(C)COP(=O)(O)OP(=O)(O)OC[C@H]1O[C@@H](n2cnc3c(N)ncnc32)[C@H](O)[C@@H]1OP(=O)(O)O (stereo partly drawn) [methylmalonyl CoA]		SDS-PAGE gel-binding assays clearly showed that PKS12 could be radiolabeled with both of these substrates
